Source: US6525001B1, “Substituted pyrimidine and pyridine herbicides” (Mid-American Commercialization Corporation, priority 1997, dated 2003)

Experiments:
Format in all cases: in vivo
[1] = tested on: purple nutsedge (Cyperus rotundus); assay: Test B pre-/postemergence; parameters: key: 0 is no effect; 10 is complete control
Method in brief: (§1)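 Seeds were planted and sprayed preemergence, while plants at 2 to 18 cm (1- to 4-leaf stage) were sprayed postemergence at the same time, with test chemical in a non-phytotoxic solvent mixture containing surfactant. After twelve to sixteen days in a greenhouse, injury was rated visually against untreated controls on a 0–10 scale.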

[2] = tested on: velvetleaf (Abutilon theophrasti); assay: Test B pre-/postemergence; parameters: key: 0 is no effect; 10 is complete control
Method in brief: as §1

corn (Zea mays) = assay: Test B pre-/postemergence; parameters: key: 0 is no effect; 10 is complete control; settings: for Corn plant response rating: Preemergence
Method in brief: as §1

[3] = tested on: bedstraw (Galium aparine); assay: Test B pre-/postemergence; parameters: key: 0 is no effect; 10 is complete control; settings: Postemergence
Method in brief: as §1

[4] = tested on: sugar beet (Beta vulgaris); assay: Test B pre-/postemergence; parameters: key: 0 is no effect; 10 is complete control
Method in brief: as §1

[5] = tested on: wheat (Triticum aestivum); assay: Test B pre-/postemergence; parameters: key: 0 is no effect; 10 is complete control
Method in brief: as §1

[6] = tested on: momingglory (Ipomoea hederacea); assay: Test B pre-/postemergence; parameters: key: 0 is no effect; 10 is complete control
Method in brief: as §1

[7] = tested on: crabgrass (Digitaria sanguinalis); assay: Test B pre-/postemergence; parameters: key: 0 is no effect; 10 is complete control; settings: for Crabgrass plant response rating: Preemergence
Method in brief: as §1

[8] = tested on: cocklebur (Xanthium strumarium); assay: Test B pre-/postemergence; parameters: key: 0 is no effect; 10 is complete control; settings: for Cocklebur plant response rating: Preemergence
Method in brief: as §1

[9] = tested on: blackgrass (Alopecurus myosuroides); assay: Test B pre-/postemergence; parameters: key: 0 is no effect; 10 is complete control; settings: for Blackgrass plant response rating: Preemergence
Method in brief: as §1

wild oat (Avena fatua) = assay: Test B pre-/postemergence; parameters: key: 0 is no effect; 10 is complete control
Method in brief: as §1

[10] = tested on: broadleaf signalgrass (Brachiaria decumbens); assay: Test B pre-/postemergence; parameters: key: 0 is no effect; 10 is complete control; settings: for B. signalgrass plant response rating: Preemergence
Method in brief: as §1

rape (Brassica napus) = assay: Test B pre-/postemergence; parameters: key: 0 is no effect; 10 is complete control
Method in brief: as §1

soybean (Glycine max) = assay: Test B pre-/postemergence; parameters: key: 0 is no effect; 10 is complete control
Method in brief: as §1

[11] = tested on: pigweed (Amaranthus retroflexus); assay: Test B pre-/postemergence; parameters: key: 0 is no effect; 10 is complete control
Method in brief: as §1

[12] = tested on: giant foxtail (Setaria faberii); assay: Test B pre-/postemergence; parameters: key: 0 is no effect; 10 is complete control
Method in brief: as §1

rice (Oryza sativa) = assay: Test B flood test
Method in brief: (§2)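 Plants were grown to the 2-leaf stage before treatment with test chemical, then held in a greenhouse for twelve to sixteen days. Injury was visually rated against untreated controls on a 0–10 scale, where 0 is no effect and 10 is complete control.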

[13] = tested on: bamyardgrass (Echinochloa crus-galli); assay: Test B flood test
Method in brief: as §2

[14] = tested on: duck salad (Heteranthera limosa); assay: Test B flood test
Method in brief: as §2

[15] = tested on: smallflower flatsedge (Cyperus difformis); assay: Test B flood test
Method in brief: as §2

[16] = Rate 250 g/ha, Postemergence (so in the source)
[17] = Rate 62 g/ha, Postemergence (flood test)
[18] = Rate 125 g/ha, Postemergence section (flood test species)
[19] = Rate 250 g/ha, Postemergence (flood test species)
[20] = Rate 125 g/ha, Postemergence, flood test

Question: Which results are given for `Cc1cnc(-c2ccc(F)c(Cl)c2)nc1Cc1cccc(C#N)c1` [Compound 40]?
Answer: Nutsedge plant response rating ([1]; Rate 62 g/ha, Preemergence): 0; Plant response rating, Nutsedge [1, 16]: 0; Plant response rating, Velvetleaf ([2]; Rate 62 g/ha, Postemergence): 1; Velvetleaf plant response rating ([2]; Rate 62 g/ha, Preemergence): 0; Velvetleaf plant response rating ([2]; Rate 125 g/ha, Postemergence): 2; Plant response rating, Velvetleaf ([2]; Rate 125 g/ha, Preemergence): 0; Plant response rating, Velvetleaf ([2]; Rate 250 g/ha, Postemergence): 2; Plant response rating, Velvetleaf [2, 16]: 1; Plant response rating, Corn (corn (Zea mays); Rate 62 g/ha, Postemergence): 1; Corn plant response rating (corn (Zea mays); Rate 62 g/ha): 0; Plant response rating, Corn (corn (Zea mays); Rate 125 g/ha, Postemergence): 1; Corn plant response rating (corn (Zea mays); Rate 125 g/ha): 0; Plant response rating, Corn (corn (Zea mays); Rate 250 g/ha, Postemergence): 1; Plant response rating, Corn (corn (Zea mays); [16]): 0; Plant response rating, Bedstraw ([3]; Rate 62 g/ha): 4; Plant response rating, Bedstraw ([3]; Rate 125 g/ha): 4; Plant response rating, Bedstraw ([3]; Rate 250 g/ha): 6; Plant response rating, Sugarbeets ([4]; Rate 62 g/ha, Postemergence): 10; Sugarbeets plant response rating ([4]; Rate 62 g/ha, Preemergence): 2; Sugarbeets plant response rating ([4]; Rate 125 g/ha, Postemergence): 10; Plant response rating, Sugarbeets ([4]; Rate 125 g/ha, Preemergence): 6; Plant response rating, Sugarbeets ([4]; Rate 250 g/ha, Postemergence): 10; Plant response rating, Sugarbeets [4, 16]: 6; Wheat plant response rating ([5]; Rate 62 g/ha, Postemergence): 1; Wheat plant response rating ([5]; Rate 62 g/ha, Preemergence): 0; Wheat plant response rating ([5]; Rate 125 g/ha, Postemergence): 1; Plant response rating, Wheat ([5]; Rate 125 g/ha, Preemergence): 0; Plant response rating, Wheat ([5]; Rate 250 g/ha, Postemergence): 2; Plant response rating, Wheat [5, 16]: 0; Plant response rating, Morningglory ([6]; Rate 62 g/ha, Postemergence): 2; Morningglory plant response rating ([6]; Rate 62 g/ha, Preemergence): 0; Morningglory plant response rating ([6]; Rate 125 g/ha, Postemergence): 2; Morningglory plant response rating ([6]; Rate 125 g/ha, Preemergence): 1; Plant response rating, Morningglory ([6]; Rate 250 g/ha, Postemergence): 5; Plant response rating, Morningglory [6, 16]: 2; Plant response rating, Crabgrass ([7]; Rate 62 g/ha, Postemergence): 1; Crabgrass plant response rating ([7]; Rate 62 g/ha): 0; Plant response rating, Crabgrass ([7]; Rate 125 g/ha, Postemergence): 1; Crabgrass plant response rating ([7]; Rate 125 g/ha): 0; Plant response rating, Crabgrass ([7]; Rate 250 g/ha, Postemergence): 3; Plant response rating, Crabgrass [7, 16]: 0; Plant response rating, Cocklebur ([8]; Rate 62 g/ha, Postemergence): 5; Cocklebur plant response rating ([8]; Rate 62 g/ha): 0; Plant response rating, Cocklebur ([8]; Rate 125 g/ha, Postemergence): 2; Cocklebur plant response rating ([8]; Rate 125 g/ha): 0; Plant response rating, Cocklebur ([8]; Rate 250 g/ha, Postemergence): 5; Plant response rating, Cocklebur [8, 16]: 0; Plant response rating, Blackgrass ([9]; Rate 62 g/ha, Postemergence): 2; Blackgrass plant response rating ([9]; Rate 62 g/ha): 0; Plant response rating, Blackgrass ([9]; Rate 125 g/ha, Postemergence): 2; Blackgrass plant response rating ([9]; Rate 125 g/ha): 1; Plant response rating, Blackgrass ([9]; Rate 250 g/ha, Postemergence): 2; Plant response rating, Blackgrass [9, 16]: 2; Wild oats plant response rating (wild oat (Avena fatua); Rate 62 g/ha, Postemergence): 0; Wild oats plant response rating (wild oat (Avena fatua); Rate 62 g/ha, Preemergence): 0; Wild oats plant response rating (wild oat (Avena fatua); Rate 125 g/ha, Postemergence): 0; Plant response rating, Wild oats (wild oat (Avena fatua); Rate 125 g/ha, Preemergence): 0; Plant response rating, Wild oats (wild oat (Avena fatua); Rate 250 g/ha, Postemergence): 1; Plant response rating, Wild oats (wild oat (Avena fatua); [16]): 1; Plant response rating, B. signalgrass ([10]; Rate 62 g/ha, Postemergence): 1; B. signalgrass plant response rating ([10]; Rate 62 g/ha): 0; Plant response rating, B. signalgrass ([10]; Rate 125 g/ha, Postemergence): 1; B. signalgrass plant response rating ([10]; Rate 125 g/ha): 0; Plant response rating, B. signalgrass ([10]; Rate 250 g/ha, Postemergence): 1; Plant response rating, B. signalgrass ([10]; Rate 250 g/ha, Postemergence as printed in head r139 (second section for compounds 26-50)): 1; Plant response rating, Rape (rape (Brassica napus); Rate 62 g/ha, Postemergence): 6; Rape plant response rating (rape (Brassica napus); Rate 62 g/ha, Preemergence): 0; Rape plant response rating (rape (Brassica napus); Rate 125 g/ha, Postemergence): 6; Rape plant response rating (rape (Brassica napus); Rate 125 g/ha, Preemergence): 1; Plant response rating, Rape (rape (Brassica napus); Rate 250 g/ha, Postemergence): 8; Plant response rating, Rape (rape (Brassica napus); [16]): 2; Plant response rating, Soybean (soybean (Glycine max); Rate 62 g/ha, Postemergence): 2; Soybean plant response rating (soybean (Glycine max); Rate 62 g/ha, Preemergence): 0; Soybean plant response rating (soybean (Glycine max); Rate 125 g/ha, Postemergence): 2; Plant response rating, Soybean (soybean (Glycine max); Rate 125 g/ha, Preemergence): 0; Plant response rating, Soybean (soybean (Glycine max); Rate 250 g/ha, Postemergence): 2; Plant response rating, Soybean (soybean (Glycine max); [16]): 0; Plant response rating, Redroot pigweed ([11]; Rate 62 g/ha, Postemergence): 2; Redroot pigweed plant response rating ([11]; Rate 62 g/ha, Preemergence): 0; Redroot pigweed plant response rating ([11]; Rate 125 g/ha, Postemergence): 3; Redroot pigweed plant response rating ([11]; Rate 125 g/ha, Preemergence): 1; Plant response rating, Redroot pigweed ([11]; Rate 250 g/ha, Postemergence): 6; Plant response rating, Redroot pigweed [11, 16]: 2; Plant response rating, Giant foxtail ([12]; Rate 62 g/ha, Postemergence): 0; Giant foxtail plant response rating ([12]; Rate 62 g/ha, Preemergence): 0; Giant foxtail plant response rating ([12]; Rate 125 g/ha, Postemergence): 0; Giant foxtail plant response rating ([12]; Rate 125 g/ha, Preemergence): 1; Plant response rating, Giant foxtail ([12]; Rate 250 g/ha, Postemergence): 2; Plant response rating, Giant foxtail [12, 16]: 3; Plant response rating, Rice (rice (Oryza sativa); [17]): 1; Rice plant response rating (rice (Oryza sativa); [18]): 1; Plant response rating, Rice (rice (Oryza sativa); [19]): 2; Plant response rating, Barnyardgrass [13, 17]: 2; Plant response rating, Barnyardgrass [13, 20]: 2; Plant response rating, Barnyardgrass [13, 19]: 2; Plant response rating, Ducksalad [14, 17]: 1; Plant response rating, Ducksalad [14, 20]: 5; Plant response rating, Ducksalad [14, 19]: 7; Plant response rating, S. Flatsedge [15, 17]: 2; S. Flatsedge plant response rating [15, 18]: 4; Plant response rating, S. Flatsedge [15, 19]: 5
